Experimental data from patent US20100028465A1, “COMPOSITION FOR AMELIORATING CEREBRAL FUNCTION” (priority 2007, published 2010).
Entries after “also recorded” stand apart in the source; their conditions may differ.

Key:
PC-12 cell = assay: Neurite extension / differentiation of PC-12 cell (differentiated cell ratio); assay type: cell-based; settings: Example 6, non-addition 9.85
Source text: Regarding three fractions purified in Example 4, i.e. the fraction 1 (containing N-acylsphinganine), the fraction 2 (containing the hopanoids), and the fraction 3 (containing sphinganine and the amino lipids), the absence or presence of an action of extending and differentiating the neurite as a neurotrophic factor-like action was confirmed using PC-12 cell as a neural model cell.
Note that, in the same manner as in Example 4, 10 g of the alkali-stable lipid was loaded into a silica gel column equilibrated with chloroform. The column was washed with a solvent prepared by mixing chloroform and acetic acid at a volume ratio of 100:1, and eluted with a solvent having a ratio of chloroform to methanol of 2:1, whereby a fraction containing all of the constituent lipids of the fraction 1, fraction 2, and fraction 3 was prepared. The fraction was used as an alkali-stable lipid fraction not containing a fatty acid. Then, the presence or the absence of the action of extending and differentiating the neurite was confirmed similarly.
PC-12 cell (RCB0009) purchased from RIKEN BIORESOURCE CENTER was used. […]
After that, the resultant was cultured at 37° C. and under 5% CO2 for 48 hours. […] The total number of cells and the number of the differentiated cells in the viewing area were counted. […] Then, the average of 10 photographs in which the numbers were counted was calculated. […]

[1] = tested on: memory disorder model rats with defect in the cholinergic neuron (ibotenic acid); assay: Morris water maze test (acquisition and probe trials) in memory disorder model rats; assay type: in vivo, rat
[2] = tested on: intracerebral monoamines: norepinephrine (NE), 5-hydroxyindole acetic acid (5-HIAA); assay: Monoamine content in cerebral cortex and hippocampus of memory disorder model rats (HPLC-ECD); assay type: in vivo, rat; settings: 1 mg/kg/day oral, day 14
Method: Then, the increase and decrease in the concentrations of those intracerebral substances in rats of each group in Example 2 were measured.
That is, the brains of the memory disorder model rats prepared in Example 2 were extirpated and the contents of the monoamines in the cerebral cortex and hippocampus were measured.
On day 14 after administration, 5 rats each in 5 groups of the ibotenic acid-untreated group, non-administration control group, low dose ASL group, high dose ASL group, and positive control group in Example 2 were decapitated with a decapitation machine and the brains were taken out. The brains were put in an ice-cold physiological saline (Otsuka Pharmaceutical Co., Ltd.). Next, the brains were taken out and the cerebral cortex and hippocampus were then taken from the divided brains and the contents of the monoamines and a metabolite thereof were measured. The measurement method is shown in (a) to (c) below.
0.2 N […] solution was added to a brain sample in a container, and thereafter, an internal standard solution was added thereto, followed by homogenizing with a homogenizer. After being ice-cooled for 60 minutes or more, the resultant was centrifuged with a refrigerated centrifuge (about 4° C., 13,800 rpm, 5 minutes), and the supernatant was used as a measurement sample.
Mobile phase: a mixture containing 0.1 mol/Lacetic acid-citric acid buffer (pH 3.5), methanol, 100 mg/ml sodium 1-octane sulfonate solution, and 5 mg/ml EDTA·2·Na solution at a ratio of 830:170:1.85:1

SMILES: CCCCCCCCCCCCCCC[C@@H](O)[C@H](CO)NC(=O)C(O)CCCCCCCCCCCCCC (stereo partly shown) [N-2′-hydroxypalmitoyl-sphinganine]
- Differentiated cell ratio (%) of PC-12 cell 48 hours after addition (PC-12 cell; addition concentration 5 μg/ml): 19.49%
- Differentiated cell ratio (%) of PC-12 cell 48 hours after addition (PC-12 cell; addition concentration 25 μg/ml): 17.44%

SMILES: Cl.Nc1c2c(nc3ccccc13)CCCC2 [positive control, 9-amino-1,2,3,4-tetrahydroacridine hydrochloride]
- escape latency in acquisition trials vs non-administration control group ([1]; 1 mg per 1 kg rat weight per day, oral, trials day 10 to 13): tended to be short
- escape latency in the seventh trial vs non-administration control group (Steel's test, p<0.05) ([1]; 1 mg/kg/day oral): no significant difference
- retention time in the fourth quadrant in probe trial ([1]; 1 mg/kg/day oral, day 14): did not tend to be long
- number of crossings of platform location in probe trial vs non-administration control group ([1]; 1 mg/kg/day oral, day 14, p<0.05 Steel's test): significant increase
- 5-HIAA content in hippocampus [2]: increasing tendencies
- 5-HIAA content in cerebral cortex ([2]; hydrochloride): increasing tendencies; also recorded: recovered to the level close to those of the ibotenic acid-untreated group
- NE content in cerebral cortex ([2]; hydrochloride): increasing tendencies; also recorded: recovered to the level close to those of the ibotenic acid-untreated group
- NE content in hippocampus ([2]; hydrochloride): increasing tendencies; also recorded: recovered to the level close to that of the ibotenic acid-untreated group
